According to US9657006B2, “Macrocyclic factor VIIa inhibitors” (BRISTOL-MYERS SQUIBB COMPANY, priority 2013, dated 2017):
Structures can show the parent of a compound that is named as a salt. Where two headings read alike, the source gives them in different places.

Experiments:
[1] = amide bond
FVIIa = molecular target: T1, FVIIa (Homo sapiens, UniProt P08709); test: FVIIa Ki (25° C.): FVIIa peptide substrate assay; format: biochemical; settings: S2288 peptide substrate, full-length human TF
T1 construct: with about 1% of the total amount in the proteolytically active form factor VIIa
Description: The effectiveness of compounds of the present invention as inhibitors of the coagulation Factors, VIIa, IXa, Xa, XIa, XIIa, plasma kallikrein or thrombin, tissue kallikrein and activated protein C, can be determined using a relevant purified serine protease, respectively, and an appropriate synthetic substrate. The rate of hydrolysis of the chromogenic or fluorogenic substrate by the relevant serine protease was measured both in the absence and presence of compounds of the present invention. […] A decrease in the rate of absorbance or fluorescence change in the presence of inhibitor is indicative of enzyme inhibition. Such methods are known to one skilled in the art. The results of this assay are expressed as the inhibitory constant, Ki.
a. FVIIa Ki (25° C.): FVIIa Peptide Substrate Assay
S2288 (range of concentrations) and FVIIa inhibitor were incubated for 15 minutes (min) at 25° C. Reactions were initiated by addition of a solution of full-length human TF (6 nM), FVIIa (0.75 nM), and PCPS (25 μM). FVIIa hydrolyses S2288, which was monitored for up to 60 min at 405 nm. Steady-state reaction velocity data (vs) was globally fit to Equation 1 for competitive inhibition. vs=Vmax[S]/([S]+Km(1+[I]/Ki)) (Eq. 1) where Vmax is maximum velocity, [S] is substrate concentration, Km is the Michaelis-Menten constant, [I] is the inhibitor concentration, and Ki is the inhibitor dissociation constant (GraFit, version 5, Erithacus Software Ltd, West Sussex, UK).

T1 sequence (P08709 213-466 limits assumed): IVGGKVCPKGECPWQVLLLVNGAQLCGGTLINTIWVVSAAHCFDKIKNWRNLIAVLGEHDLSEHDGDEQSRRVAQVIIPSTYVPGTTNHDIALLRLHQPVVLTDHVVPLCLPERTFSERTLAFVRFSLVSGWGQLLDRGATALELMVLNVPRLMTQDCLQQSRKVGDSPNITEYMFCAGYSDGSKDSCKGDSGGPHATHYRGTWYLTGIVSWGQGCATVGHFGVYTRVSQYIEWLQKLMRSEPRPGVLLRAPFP
T1 sequence (P08709 61-212 limits assumed): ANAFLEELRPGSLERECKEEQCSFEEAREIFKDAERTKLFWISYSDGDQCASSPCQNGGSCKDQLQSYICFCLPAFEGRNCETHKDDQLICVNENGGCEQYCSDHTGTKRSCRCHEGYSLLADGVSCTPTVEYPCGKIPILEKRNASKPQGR
T1 sequence (P13726 33-295 partner): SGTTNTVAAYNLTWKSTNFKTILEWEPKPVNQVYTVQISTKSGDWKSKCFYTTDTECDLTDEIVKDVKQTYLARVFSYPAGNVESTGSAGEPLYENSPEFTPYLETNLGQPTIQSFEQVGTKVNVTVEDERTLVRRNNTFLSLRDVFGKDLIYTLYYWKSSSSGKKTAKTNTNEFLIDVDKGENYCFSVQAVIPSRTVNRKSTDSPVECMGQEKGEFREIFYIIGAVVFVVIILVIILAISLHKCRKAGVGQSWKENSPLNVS

Compound | Ki (FVIIa) | also measured
CN1Cc2cc(ccc2S(=O)(=O)C2CC2)NC(=O)CCc2cc(ccc2F)C(Nc2ccc3c(N(C(=O)OC(C)(C)C)C(=O)OC(C)(C)C)ncc(F)c3c2)C1=O (stereo not drawn) | – | ring closure, isolated yield ([1]; from CNCc1cc(NC(=O)CCc2cc(C(Nc3ccc4c(N(C(=O)OC(C)(C)C)C(=O)OC(C)(C)C)ncc(F)c4c3)C(=O)O)ccc2F)ccc1S(=O)(=O)C1CC1, 14-membered ring, BOP/DMAP/DIPEA, DCM/DMF, 25.0 °C, 12.0 h): 30%
COc1c(F)cc2cc1CCC(=O)Nc1ccc(S(=O)(=O)C3CC3)c(c1)CN(C)C(=O)C2Nc1ccc2c(N(C(=O)OC(C)(C)C)C(=O)OC(C)(C)C)ncc(F)c2c1 (stereo not drawn) | – | ring closure, isolated yield ([1]; from CNCc1cc(NC(=O)CCc2cc(C(Nc3ccc4c(N(C(=O)OC(C)(C)C)C(=O)OC(C)(C)C)ncc(F)c4c3)C(=O)O)cc(F)c2OC)ccc1S(=O)(=O)C1CC1, 14-membered ring, BOP/DMAP/DIPEA, DCM/DMF, 25.0 °C): 18%
CN1Cc2cc(ccc2S(=O)(=O)C(F)(F)F)NC(=O)CCc2cc(ccc2OCC(F)F)C(Nc2ccc3c(N(C(=O)OC(C)(C)C)C(=O)OC(C)(C)C)ncc(F)c3c2)C1=O (stereo not drawn) | – | ring closure, isolated yield ([1]; from CNCc1cc(NC(=O)CCc2cc(C(Nc3ccc4c(N(C(=O)OC(C)(C)C)C(=O)OC(C)(C)C)ncc(F)c4c3)C(=O)O)ccc2OCC(F)F)ccc1S(=O)(=O)C(F)(F)F, 14-membered ring, BOP): 45%
CN1Cc2cc(cc(F)c2OC(CF)CF)NC(=O)CCc2cc(ccc2OCC(F)F)C(Nc2ccc(C#N)cc2)C1=O (stereo not drawn) | – | ring closure, isolated yield ([1]; from CNCc1cc(NC(=O)CCc2cc(C(Nc3ccc(C#N)cc3)C(=O)O)ccc2OCC(F)F)cc(F)c1OC(CF)CF, 14-membered ring, BOP): 44%
C[C@@H]1CC(=O)Nc2ccc(OC(F)F)c(c2)CN(C)C(=O)C(Nc2ccc(C#N)cc2)c2ccc(OCc3ccccc3)c1c2 (stereo partly drawn) | – | ring closure, isolated yield ([1]; from CNCc1cc(NC(=O)C[C@@H](C)c2cc(C(Nc3ccc(C#N)cc3)C(=O)O)ccc2OCc2ccccc2)ccc1OC(F)F, 14-membered ring, BOP): 64%
CN1Cc2cc(cc(F)c2OC(F)F)NC(=O)CCc2cccc(c2)C(Nc2ccc(C#N)cc2)C1=O (stereo not drawn) | – | ring closure, isolated yield ([1]; from CN(Cc1cc(N)cc(F)c1OC(F)F)C(=O)C(Nc1ccc(C#N)cc1)c1cccc(CCC(=O)O)c1, 14-membered ring, BOP/DMAP/DIPEA, DCM/DMF, 4.8 mM, 40.0 °C, 21.0 h): 80%
CCOC(=O)CC1NC(=O)[C@H](Nc2ccc(C#N)cc2)c2ccc(OCC(F)F)c(c2)CCC(=O)Nc2cccc1c2 (stereo partly drawn) | – | ring closure, isolated yield ([1]; 14-membered ring, HATU): 21%
COc1ccc2cc1COCC(=O)Nc1ccc(S(=O)(=O)C3CC3)c(c1)CN(C)C(=O)C2Nc1ccc2c(N(C(=O)OC(C)(C)C)C(=O)OC(C)(C)C)nccc2c1 (stereo not drawn) | – | ring closure, isolated yield ([1]; from CNCc1cc(NC(=O)COCc2cc(C(Nc3ccc4c(N(C(=O)OC(C)(C)C)C(=O)OC(C)(C)C)nccc4c3)C(=O)O)ccc2OC)ccc1S(=O)(=O)C1CC1, 15-membered ring, BOP/DMAP/DIPEA, DCM/DMF, 25.0 °C, 12.0 h): 54%
C[C@H]1CC(=O)Nc2ccc(S(=O)(=O)C3CC3)c(c2)CN(C)C(=O)C(Nc2ccc3c(N(C(=O)OC(C)(C)C)C(=O)OC(C)(C)C)ncc(F)c3c2)c2ccc(OCc3ccccc3)c1c2 (stereo partly drawn) | – | ring closure, isolated yield ([1]; from CNCc1cc(NC(=O)C[C@H](C)c2cc(C(Nc3ccc4c(N(C(=O)OC(C)(C)C)C(=O)OC(C)(C)C)ncc(F)c4c3)C(=O)O)ccc2OCc2ccccc2)ccc1S(=O)(=O)C1CC1, 14-membered ring, BOP/DMAP/DIPEA, DCM/DMF, 25.0 °C): 24%
CN1Cc2cc(cc(F)c2OCC(F)F)NC(=O)CCc2cc(ccc2OCC(F)F)C(Nc2ccc(C#N)cc2)C1=O (stereo not drawn) | – | ring closure, isolated yield ([1]; from CNCc1cc(NC(=O)CCc2cc(C(Nc3ccc(C#N)cc3)C(=O)O)ccc2OCC(F)F)cc(F)c1OCC(F)F, 14-membered ring, BOP): 62%
CN1Cc2cc(ccc2S(=O)(=O)C2CC2)NC(=O)COc2cccc(c2)[C@@H](Nc2ccc3c(N)nccc3c2)C1=O [Example 10, (R)-14-(1-Amino-isoquinolin-6-ylamino)-9-cyclopropanesulfonyl-12-methyl-2-oxa-5,12-diaza-tricyclo[13.3.1.1^6,10]icosa-1(18),6(20),7,9,15 (19),16-hexaene-4,13-dione trifluoroacetic acid salt+Enantiomer] | 714 nM | –
CN1Cc2cc(cc(F)c2OC(CF)CF)NC(=O)CCc2cc(ccc2OCC(F)F)[C@@H](Nc2ccc(C(=N)N)cc2)C1=O (single isomer, unassigned) [Example 42, trifluoroacetic acid salt] | 5 nM | –
CN1Cc2cc(cc(F)c2OCC(F)F)NC(=O)CCc2cc(ccc2OCC(F)F)[C@@H](Nc2ccc(C(=N)N)cc2)C1=O (single isomer, unassigned) [Example 40, trifluoroacetic acid salt] | 5 nM | –
COc1cc2cc(c1)[C@@H](Nc1ccc3c(N)ncc(F)c3c1)C(=O)N(C)Cc1cc(ccc1S(=O)(=O)C1CC1)NC(=O)CC2 (single isomer, unassigned) [Example 15] | 6 nM | –
(R)-11-(5-Amino-8-fluoro-naphthalen-2-ylamino)-16-cyclopropanesulfonyl-7-cyclopropyl-13-methyl-2,13-diaza-tricyclo[13.3.1.1^6,10]icosa-1(18),6,8,10(20),15(19),16-hexaene-3,12-dione trifluoroacetic acid salt [Example 36] | 5 nM | –
CC(C)Oc1ccc2cc1CCC(=O)Nc1ccc(S(=O)(=O)C3CC3)c(c1)CN(C)C(=O)[C@@H]2Nc1ccc2c(N)ncc(F)c2c1 [Example 26, (R)-11-(1-Amino-4-fluoro-isoquinolin-6-ylamino)-16-cyclopropanesulfonyl-7-isopropoxy-13-methyl-2,13-diaza-tricyclo[13.3.1.1^6,10]icosa-1(19),6,8,10(20),15,17-hexaene-3,12-dione trifluroracetic acid salt] | 5 nM | –
CN1Cc2cc(ccc2S(=O)(=O)C2CC2)NC(=O)CCc2cc(ccc2OCc2ccccc2)[C@@H](Nc2ccc3c(N)ncc(F)c3c2)C1=O (single isomer, unassigned) [Example 18] | 6 nM | –
CN1Cc2cc(ccc2S(=O)(=O)C2CC2)NC(=O)NCCc2cccc(c2)[C@@H](Nc2ccc3c(N)ncc(F)c3c2)C1=O (single isomer, unassigned) [Example 41, trifluoroacetic acid salt] | 17 nM | –
CN1Cc2cc(ccc2S(=O)(=O)C2CC2)NC(=O)CCc2cc(ccc2OCC(F)F)[C@@H](Nc2ccc3c(N)ncc(F)c3c2)C1=O [Example 21, (R)-11-(1-Amino-4-fluoro-isoquinolin-6-ylamino)-16-cyclopropane sulfonyl-7-(2,2-difluoro-ethoxy)-13-methyl-2,13-diaza-tricyclo[13.3.1.1^6,10]icosa-1(19),6,8,10(20),15,17-hexaene-3,12-dione trifluroracetic acid salt] | 5 nM | –
CN1Cc2cc(ccc2S(=O)(=O)C2CC2)NC(=O)N(Cc2ccccc2)CCc2cccc(c2)[C@@H](Nc2ccc3c(N)ncc(F)c3c2)C1=O (single isomer, unassigned) [Example 29] | 80 nM | –
C[C@@H]1CC(=O)Nc2ccc(S(=O)(=O)C3CC3)c(c2)CN(C)C(=O)[C@H](Nc2ccc3c(N)ncc(F)c3c2)c2ccc(OCC(F)F)c1c2 (single isomer, unassigned) [Example 38, trifluoroacetic acid salt] | 5 nM | –
CC(C)COc1ccc2cc1CCC(=O)Nc1ccc(S(=O)(=O)C3CC3)c(c1)CN(C)C(=O)[C@@H]2Nc1ccc2c(N)ncc(F)c2c1 [Example 24, (R)-11-(1-Amino-4-fluoro-isoquinolin-6-ylamino)-16-cyclopropanesulfonyl-7-isobutoxy-13-methyl-2,13-diaza-tricyclo[13.3.1.1^6,10]icosa-1(19),6,8,10(20),15,17-hexaene-3,12-dione trifluroracetic acid salt] | 5 nM | –
CCCCOc1ccc2cc1CCC(=O)Nc1ccc(S(=O)(=O)C3CC3)c(c1)CN(C)C(=O)[C@@H]2Nc1ccc2c(N)ncc(F)c2c1 [Example 23, (R)-11-(1-Amino-4-fluoro-isoquinolin-6-ylamino)-7-butoxy-16-cyclopropanesulfonyl-13-methyl-2,13-diaza-tricyclo[13.3.1.1^6,10]icosa-1(19),6,8,10(20),15,17-hexaene-3,12-dione trifluroracetic acid salt] | 5 nM | –
COc1ccc2cc1[C@@H](C)CN(C)C(=O)Nc1ccc(S(=O)(=O)C3CC3)c(c1)CN(C)C(=O)[C@@H]2Nc1ccc2c(N)ncc(F)c2c1 (single isomer, unassigned) [Example 31] | 5 nM | –
C[C@@H]1CC(=O)Nc2cccc(c2)[C@@H](CC(=O)O)NC(=O)[C@H](Nc2ccc(C(=N)N)cc2)c2ccc(OCC(F)F)c1c2 [Example 44, trifluoroacetic acid salt] | 5 nM | –
COc1c(F)cc2cc1CCC(=O)Nc1ccc(S(=O)(=O)C3CC3)c(c1)CN(C)C(=O)[C@@H]2Nc1ccc2c(N)ncc(F)c2c1 (single isomer, unassigned) [Example 30] | 10 nM | –
CN1CCc2cccc(c2)[C@@H](Nc2ccc(C(=N)N)cc2)C(=O)N(C)Cc2cc(cc(F)c2OC(F)F)NC1=O (single isomer, unassigned) [Example 35, trifluoroacetic acid salt] | 6 nM | –
